In patent US9855268B2, “Triazolo[4,5-d]pyrimidine derivatives” (Merck Patent GmbH, priority 2013, dated 2018):

biological target: GCN2 (Homo sapiens, UniProt Q9P2K8); assay: GCN2 enzyme assay (TR-FRET Lanthascreen, GFP-eIF2alpha phosphorylation); type: biochemical; conditions: 10 μM ATP, 80 nM GFP-eIF2a, 30 nM GCN2
Source text: GCN2: Assay Principle & Conditions
This assay can quantificate the activity of the serin kinase GCN2 (general control non-derepressible-2).
This kinase is involved in the stress metabolism of cells. It is activated upon starvation (amino acid depletion). Its natural substrate is eIF2a (eukaryotic initiation factor 2 alpha subunit), a translation factor, which gets activated (phosphorylated) by GCN2 in case of an amino acid bottleneck in the cells. This in turn leads to a halt of the protein synthesis. Inhibition of GCN2 results in stopping this mechanism: The cell can not stop protein production upon “starvation” stress.
The assay is run in two steps: the enzymatic reaction and the detection step. In the first step GCN2 is incubated with 10 μM ATP and 80 nM of the GFP-labelled substrate eIF2alpha at room temperature.
The enzymatic reaction is stopped by addition of EDTA. The amount of phosphorylated eIF2alpha is determined by TR-FRET (Lanthascreen): A complex is formed consisting of antibody and GFP labelled phospho-eIF2a, which allows a FRET upon exitation at 340 nm.
Final Concentrations in the Enzymatic Reaction

Chain of GCN2 (Q9P2K8 whole entry, species assumed): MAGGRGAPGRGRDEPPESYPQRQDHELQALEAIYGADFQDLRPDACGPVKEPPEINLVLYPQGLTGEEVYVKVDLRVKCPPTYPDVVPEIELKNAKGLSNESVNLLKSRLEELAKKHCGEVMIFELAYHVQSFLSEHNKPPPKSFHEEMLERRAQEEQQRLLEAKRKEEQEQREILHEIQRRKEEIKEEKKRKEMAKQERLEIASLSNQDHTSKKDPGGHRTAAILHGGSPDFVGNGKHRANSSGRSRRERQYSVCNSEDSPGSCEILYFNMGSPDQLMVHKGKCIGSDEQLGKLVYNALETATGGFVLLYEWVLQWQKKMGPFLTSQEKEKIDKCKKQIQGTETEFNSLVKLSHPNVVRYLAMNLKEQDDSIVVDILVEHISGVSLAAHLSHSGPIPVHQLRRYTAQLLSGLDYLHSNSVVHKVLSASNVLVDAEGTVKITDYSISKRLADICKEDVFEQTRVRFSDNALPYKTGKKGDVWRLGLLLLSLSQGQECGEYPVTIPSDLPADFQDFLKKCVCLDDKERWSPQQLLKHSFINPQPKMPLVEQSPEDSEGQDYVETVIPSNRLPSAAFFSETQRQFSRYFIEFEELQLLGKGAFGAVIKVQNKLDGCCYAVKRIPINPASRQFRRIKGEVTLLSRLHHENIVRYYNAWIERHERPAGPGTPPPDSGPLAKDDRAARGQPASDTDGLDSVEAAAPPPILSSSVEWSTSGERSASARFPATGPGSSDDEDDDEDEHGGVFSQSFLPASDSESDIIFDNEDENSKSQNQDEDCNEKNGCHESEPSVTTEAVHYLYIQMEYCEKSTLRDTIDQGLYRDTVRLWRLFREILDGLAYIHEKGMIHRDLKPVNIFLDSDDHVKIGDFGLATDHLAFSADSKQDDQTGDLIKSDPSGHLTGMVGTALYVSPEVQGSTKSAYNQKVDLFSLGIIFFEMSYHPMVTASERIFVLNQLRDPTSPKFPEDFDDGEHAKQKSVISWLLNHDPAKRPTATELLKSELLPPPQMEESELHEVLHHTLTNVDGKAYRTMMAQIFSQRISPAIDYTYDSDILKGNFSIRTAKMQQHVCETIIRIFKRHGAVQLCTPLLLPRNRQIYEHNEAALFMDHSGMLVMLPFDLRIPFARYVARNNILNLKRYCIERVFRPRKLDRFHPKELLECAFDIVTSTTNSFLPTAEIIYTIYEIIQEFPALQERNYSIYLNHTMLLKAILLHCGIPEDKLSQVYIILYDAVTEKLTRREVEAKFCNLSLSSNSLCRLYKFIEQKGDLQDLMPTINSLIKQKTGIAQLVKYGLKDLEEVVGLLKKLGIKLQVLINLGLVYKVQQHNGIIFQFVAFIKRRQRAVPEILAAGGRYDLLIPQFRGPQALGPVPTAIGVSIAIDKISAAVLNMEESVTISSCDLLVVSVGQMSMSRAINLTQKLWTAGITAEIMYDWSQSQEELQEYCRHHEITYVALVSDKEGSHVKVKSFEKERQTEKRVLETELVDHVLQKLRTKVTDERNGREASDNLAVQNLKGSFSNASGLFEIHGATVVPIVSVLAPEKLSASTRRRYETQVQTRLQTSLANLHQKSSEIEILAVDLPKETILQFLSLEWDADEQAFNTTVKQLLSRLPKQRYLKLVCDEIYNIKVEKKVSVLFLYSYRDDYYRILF

Compound	IC50 [nM]
COc1ccc(-n2nnc3cnc(N[C@@H]4CC[C@@H](O)C4)nc32)cc1 (racemic) [A10, trans-3-[3-(4-methoxy-phenyl)-3H-[1,2,3]triazolo[4,5-d]pyrimidin-5-ylamino]-cyclopentanol]	< 1000
COc1ccc(-n2nnc3cnc(N[C@H]4CC[C@H](NC(=O)OC(C)(C)C)C4)nc32)cc1 (racemic) [A35, {trans-3-[3-(4-methoxy-phenyl)-3H-[1,2,3]triazolo[4,5-d]pyrimidin-5-ylamino]-cyclopentyl}-carbamic acid tert-butyl ester]	5000 to 10000
COc1ccc(-n2nnc3cnc(N[C@H]4CC[C@@H](O)C4)nc32)cc1 (relative stereo) [A27, cis-3-[3-(4-methoxy-phenyl)-3H-[1,2,3]triazolo[4,5-d]pyrimidin-5-ylamino]-cyclopentanol]	1000 to 5000
O[C@@H]1CC[C@@H](Nc2ncc3nnn(-c4ccc(Br)cc4)c3n2)C1 (relative stereo) [A29, trans-3-[3-(4-bromo-phenyl)-3H-[1,2,3]triazolo[4,5-d]pyrimidin-5-ylamino]cyclopentanol]	< 1000
COc1ccc(-n2nnc3cnc(N[C@@H]4CC[C@](O)(C(F)(F)F)C4)nc32)cc1 (relative stereo) [A67, trans-3-[3-(4-methoxy-phenyl)-3H-[1,2,3]triazolo[4,5-d]pyrimidin-5-ylamino]-1-trifluoromethyl-cyclopentanol]	1000 to 5000
Cn1cc(-c2ccc(-n3nnc4cnc(N[C@H]5CC[C@H](O)C5)nc43)nc2)cn1 (relative stereo) [A94, trans-3-{3-[5-(1-methyl-1H-pyrazol-4-yl)-pyridin-2-yl]-3H-[1,2,3]triazolo[4,5-d]pyrimidin-5-ylamino}-cyclopentanol]	< 1000
COc1ccc(-n2nnc3cnc(N[C@H]4CC[C@@H](N(C)C)C4)nc32)cc1 (relative stereo) [A108, (cis)-N-[3-(4-methoxy-phenyl)-3H-[1,2,3]triazolo[4,5-d]pyrimidin-5-yl]-N′,N′-dimethyl-cyclopentane-1,3-diamine]	< 1000
COc1ccc(-n2nnc3cnc(N[C@@H]4CC[C@H](CNC(=O)OC(C)(C)C)C4)nc32)cc1 (relative stereo) [A117, {(cis)-3-[3-(4-methoxy-phenyl)-3H-[1,2,3]triazolo[4,5-d]pyrimidin-5-ylamino]-cyclopentylmethyl}-carbamic acid tert-butyl ester]	< 1000
COCCn1cc(-n2nnc3cnc(N[C@@H]4CCC[C@@H](C(N)=O)C4)nc32)cn1 (relative stereo) [A165, (trans)-3-{3-[1-(2-methoxy-ethyl)-1H-pyrazol-4-yl]-3H-[1,2,3]triazolo[4,5-d]pyrimidin-5-ylamino}-cyclohexanecarboxylic acid amide]	1000 to 5000
CCOc1ccc(-n2nnc3cnc(N[C@@H]4CC[C@@H](O)C4)nc32)cn1 (relative stereo) [A206, (trans)-3-[3-(6-ethoxy-pyridin-3-yl)-3H-[1,2,3]triazolo[4,5-d]pyrimidin-5-ylamino]-cyclopentanol]	< 1000
COCCn1cc(-c2ccc(-n3nnc4cnc(N[C@H]5CC[C@H](O)C5)nc43)cn2)cn1 (relative stereo) [A234, (trans)-3-(3-{6-[1-(2-methoxy-ethyl)-1H-pyrazol-4-yl]-pyridin-3-yl}-3H-[1,2,3]triazolo[4,5-d]pyrimidin-5-ylamino)-cyclopentanol]	< 1000
COc1ccc(-n2nnc3cnc(N[C@H]4CC[C@H](SC)C4)nc32)cc1 (relative stereo) [A262, [3-(4-methoxy-phenyl)-3H-[1,2,3]triazolo[4,5-d]pyrimidin-5-yl]-((trans)-3-methylsulfanyl-cyclopentyl)-amine]	< 1000
COc1ccc(-n2nnc3cnc(N[C@H]4CC[C@H](S(C)(=O)=O)C4)nc32)cc1 (relative stereo) [A263, ((trans)-3-methanesulfonyl-cyclopentyl)-[3-(4-methoxy-phenyl)-3H-[1,2,3]triazolo[4,5-d]pyrimidin-5-yl]-amine]	< 1000
